Assay results taken from publication PMC5855875, “Teixobactin analogues reveal enduracididine to be non-essential for highly potent antibacterial activity and lipid II binding” (Chemical Science, 2017).
Converted amounts (≈) assume the structure as drawn. Bridge positions count the residues as written; N and C are the ends. Square brackets hold non-standard residues; d marks the D form. Peptide text beside a SMILES is read from it. d(aIle) = CC[C@H](C)[C@@H](N)C(=O)O; dNMeF = CN[C@H](Cc1ccccc1)C(=O)O

Experiments:
VRE 1: VRE ATCC 700802 = test: organism not typed
VRE 2: VRE ATCC 29212 = test: organism not typed
[1] = system: Staphylococcus aureus ATCC 29213; test: microbe, parasite or virus in culture
[2] = system: MRSA 3: MRSA DM21455 (eye); test: microbe, parasite or virus in culture
MRSA 1: MRSA ATCC 700699 = test: microbe, parasite or virus in culture
MRSA ATCC 33591 = test: microbe, parasite or virus in culture; conditions: ATCC 33591, 24 h
[3] = system: MRSA 2: MRSA DR 42412 (sputum); test: microbe, parasite or virus in culture
[4] = Lipid II TLC binding assay; conditions: peptide : lipid II 2 : 1; 50 mM Tris/HCl, pH 7.5, 30 min, room temperature; three independent experiments
Experimental: X. Complex formation of teixobactin with lipid II and geranyl pyrophosphate Complex formation of teixobactin analogues 8 (Ala10-teixobactin) and 16 (Arg10-teixobactin) with lipid II and geranyl pyrophosphate was performed using TLC as described previously.7 Binding of teixobactin to lipid II and geranyl pyrophosphate was analysed by incubating 30 µL of 2 nmol of each precursor with 2 or 4 nmoles of teixobactin in 50 mM Tris/HCl, pH 7.5, for 30 min at room temperature. Complex formation was analysed by extracting unbound precursors from the reaction mixture with 30 µL n- butanol/6M pyridine acetate (pH 4.2) (2:1; vol/vol) followed by TLC analysis of the organic layer using chloroform/methanol/water/ammonia (88:48:10:1, v/v/v/v) as the solvent and detection of lipid/phosphate containing precursors by phosphomolybdic acid staining. The TLC figures represent the results obtained through thr ee independent experiments.
Figure S76 : Binding of teixobactin analogues 8 (Ala10-teixobactin ) and 16 (Arg10-teixobactin) with lipid II using the protocols described in literature .7 Partial binding is observed when the ratio of lipid II to the analogue is 1:1 (indicated by lighter spots on the TLC) and complete binding is observed when the ratio of lipid II to the analogue is 1:2 in case of analogue 16 and 1:4 in case of analogue 8 (indicated […]
(also on this page, place not known: polyso rbate vancomycin , concentr ation 80 . wer e µ l (10 1-105 10 10 previously n - TL C three S76: (Ala10-teixobactin) literature.7 Lipid II Lipid II: Compound 8 = 1:1 Lipid II: Compound 16 = 1:1 Lipid II: Compound 8 = 1:2 Lipid II: Compound 16 = 1:2 Lipid II: Compound 8 = 1:4)

[5] = 1H DOSY at each titration point
[6] = NMR titration with geranyl pyrophosphate (lipid II mimic); type: binding
Experimental: In order to evaluate target binding, we have performed the lipid II TLC binding assay[2] with Ala10-teixobactin. This assay provides qualitative binding data of Ala10-teixobactin with lipid II. […] Therefore, in order better understand the target binding of teixobactin analogues in a quantitative manner, extensive NMR studies (Fig. 6) on Ala10-teixobactin and geranyl pyrophosphate were performed.
This can occur due to intermediate exchange on the NMR time-scale, and therefore cooperative binding is not an obvious choice.

M. smegmatis ATCC 607 = test: microbe, parasite or virus in culture; conditions: ATCC 607, 72 h
Experimental: were grown in Mueller Hinton broth (Oxoid) in triplicate. All incubations were at 37°C. Dilutions were carried out in triplicate. 100 µl of autoclaved Mueller Hinton broth was added to wells 2-12 in a 96-well plate. 200 µl of the peptide was added to well one at a concentration of 256 µg/mL. 100µl of peptide in well one was taken up and pipetted into well two. The mixture was then mixed via pipetting before 100µl was taken up and pipetted into well three. This process was repeated up to well 11. Once […]
peptide present. Thus, the concentrations (in µg/mL) were: 256, 128, 64, 32, 16, 8, 4, 2, 1, 0.5, 0.25 and no peptide present. Each well was then inoculated with 100µl of bacteria that had been diluted to an […]
This was repeated three times. The 96-well plates were then incubated at 37°C for 24 hours. The MIC was determined to be the lowest concentration at which there was no growth visible. […]
was repeated at an altered initial concentration of 64 µg/ml. Therefore, the new concentrations for MIC […]
Middlebrook 7H9 broth (SIGMA) supplemented to 5% Middlebrook ADC (SIGMA) growth

With `CC[C@H](C)[C@H](NC(=O)[C@@H](Cc1ccccc1)NC)C(=O)N[C@@H](CO)C(=O)N[C@H](CCC(N)=O)C(=O)N[C@@H](C(=O)N[C@H](C(=O)N[C@@H](CO)C(=O)N[C@H]1C(=O)N[C@@H](C)C(=O)N[C@@H](C)C(=O)N[C@@H]([C@@H](C)CC)C(=O)O[C@H]1C)[C@@H](C)CC)[C@@H](C)CC` [Compound 8, Ala10-teixobactin] (H-[dNMeF]IS[dQ][d(aIle)]IS[dT]AAI; ester 8-C) the MIC (VRE 1: VRE ATCC 700802; ATCC 700802, 24 h) was 4 μg mL^–1, the “MIC (without polysorbate 80)” value (VRE 1: VRE ATCC 700802; ATCC 700802, 24 h) was 8 µg/mL (≈ 6.9 µM) and the “MIC (with polysorbate 80)” value (VRE 1: VRE ATCC 700802; VRE 1, MHB containing polysorbate 80 (0.002%, v/v), 37 °C, 24 h) was 4 µg/mL (≈ 3.45 µM). For the same molecule, the MIC (VRE 2: VRE ATCC 29212; ATCC 29212, 24 h) was 4 μg mL^–1, the “MIC (without polysorbate 80)” value (VRE 2: VRE ATCC 29212; ATCC 29212, 24 h) was 8 µg/mL (≈ 6.9 µM) and the “MIC (with polysorbate 80)” value (VRE 2: VRE ATCC 29212; VRE 2, MHB containing polysorbate 80 (0.002%, v/v), 37 °C, 24 h) was 4 µg/mL (≈ 3.45 µM). For the same molecule, the “MIC (without polysorbate 80)” value ([1]; ATCC 29213, 24 h) was 4 µg/mL (≈ 3.45 µM), the “MIC (with polysorbate 80)” value ([1]; S. aureus ATCC 29213, MHB containing polysorbate 80 (0.002%, v/v), 37 °C, 24 h) was 1 µg/mL (≈ 0.863 µM) and the MBC ([1]; Staphylococcus aureus ATCC 29213, plated on MHA, 37 °C, 24 h) was 2 μg mL^–1. The MIC ([2]; 3: DM21455 (eye, 24 h)) was 1 μg mL^–1, the “MIC (without polysorbate 80)” value ([2]; 3: DM21455 (eye, 24 h)) was 4 µg/mL (≈ 3.45 µM) and the MBC ([2]; MRSA 3 (MRSA DM21455), plated on MHA, 37 °C, 24 h) was 2 μg mL^–1. For the same molecule, the “MIC (with polysorbate 80)” value ([2]; MRSA 3, MHB containing polysorbate 80 (0.002%, v/v), 37 °C, 24 h) was 1 µg/mL (≈ 0.863 µM), the MIC (MRSA 1: MRSA ATCC 700699; ATCC 700699, 24 h) was 4 μg mL^–1 and the “MIC (without polysorbate 80)” value (MRSA 1: MRSA ATCC 700699; ATCC 700699, 24 h) was 8 µg/mL (≈ 6.9 µM). For the same molecule, the MBC (MRSA 1: MRSA ATCC 700699; MRSA 1 (MRSA ATCC 700699), plated on MHA, 37 °C, 24 h) was 16 μg mL^–1, the “MIC (with polysorbate 80)” value (MRSA 1: MRSA ATCC 700699; MRSA 1, MHB containing polysorbate 80 (0.002%, v/v), 37 °C, 24 h, two independent duplicates) was 4 µg/mL (≈ 3.45 µM) and the MIC (MRSA ATCC 33591) was 1–2 μg mL^–1. For the same molecule, the MIC ([3]; 2: DR 42412 (sputum, 24 h)) was 1 μg mL^–1, the “MIC (without polysorbate 80)” value ([3]; 2: DR 42412 (sputum, 24 h)) was 4 µg/mL (≈ 3.45 µM) and the MBC ([3]; MRSA 2 (MRSA DR 42412), plated on MHA, 37 °C, 24 h) was 4 μg mL^–1. For the same molecule, the “MIC (with polysorbate 80)” value ([3]; MRSA 2, MHB containing polysorbate 80 (0.002%, v/v), 37 °C, 24 h) was 1 µg/mL (≈ 0.863 µM), the “lipid II spot on TLC” value [4] was “a small amount of lipid II was still visible on TLC” and the “aggregation in presence of geranyl pyrophosphate (diffusion coefficient)” value [5] was “no aggregation occurred”. It also gave a Kd ([6]; 2 Ile Hα, NMR titration of geranyl pyrophosphate) of 348 ± 18 µM, a Kd ([6]; 3 Ser Hα, NMR titration of geranyl pyrophosphate) of 503 ± 8 µM and a Kd ([6]; 4 D-Gln Hα, NMR titration of geranyl pyrophosphate) of 507 ± 2 µM. For the same molecule, the Kd ([6]; 5 D-Ile Hα, NMR titration of geranyl pyrophosphate) was 483 ± 4 µM, the Kd ([6]; 7 Ser Hα, NMR titration of geranyl pyrophosphate) was 125 ± 3 µM and the Kd ([6]; 8 D-Thr Hα, NMR titration of geranyl pyrophosphate) was 204 ± 3 µM. It also gave a Kd ([6]; 9 Ala Hα, NMR titration of geranyl pyrophosphate) of 394 ± 4 µM, a Kd ([6]; 10 Ala Hα, NMR titration of geranyl pyrophosphate) of 314 ± 3 µM and a Kd ([6]; 11 Ile Hα, NMR titration of geranyl pyrophosphate) of 391 ± 4 µM. For the same molecule, the Kd ([6]; Net (Total), overall binding by PCA) was 138 ± 5 µM and the MIC (M. smegmatis ATCC 607) was 1–2 μg mL^–1.
